Experimental data published in patent US5091187A, “Phospholipid-coated microcrystals: injectable formulations of water-insoluble drugs” (priority 1991, dated 1992).
Converted amounts (≈) assume the structure as drawn. Structures can show the parent of a compound that is named as a salt.

Key:
human skin = test: Pin prick anesthesia after intradermal injection, human self-experimentation; settings: in vivo
Protocol: The Inventor carried out self-experimentation with Preparation B. I made two intradermal injections of 0.15 ml of Preparation B into the skin of my calf, right leg, inside, at sites 12 cm and 22 cm below the knee. The injections raised weals approx. 1.1 cm in diameter. […] The weals subsided within ca. 30 sec. The injected sites were tested for pin prick and cold stimulus anesthesia for the next 24 hr.
As a control for the above, I injected myself with 0.15 ml volumes of solutions of 1%, 2% and 5% tetracaine-H-Cl. In attempt to make the concentrated solutions less damaging, the pH was adjusted from 5.3 to 6.5. Physiological tonicity was maintained by including glucose (4.3%, 3.2% and 0%, respectively). […] The 1% and 2% tetracaine-H-Cl solutions produced only mild erthrema, with return to normal color when the anesthesia subsided. […] The presented anesthesia values were taken at its periphery. […] This poor outcome with the 5% (w/v) tetracaine solution is in stark contrast to the excellent results obtained with the 20% (w/v) tetracaine-H-I microcrystal.

surgical wounds = settings: crystals sprinkled into surgical wounds; cited from earlier work
[1] = pKa and oil/water partition of indomethacin; assay type: physicochemical
[2] = IV injection; cited from earlier work
[3] = water
injected muscle = test: IM injection of albendazole sulfoxide preparations in rats; assay type: in vivo, rat; settings: versus albendazole
Protocol: The above experimentation was repeated with albendazole sulfoxide, a more water-soluble analogue of the drug. […] Solubility data for albendazole sulfoxide are: 0.42 mg/ml in water, 17.7 mg/ml in propylene glycol and 179.0 mg/ml in ethanol. […] Both preparations normally settled to albendazole sulfoxide concentrations of 20% (w/v). Samples (0.1 ml) of both preparations were injected IM in rats (n=6) and the muscles were examined at necropsy, 2 days post-injection. […] Propylene glycol, which has two OH groups and a dielectric constant of 32, is an example of a polar organic compound which can be substituted for water.

For `CN(C)[C@@H]1C(=O)C(C(N)=O)=C(O)[C@@]2(O)C(=O)C3=C(O)c4c(O)cccc4[C@@](C)(O)[C@H]3[C@H](O)[C@@H]12` [OTC, oxytetracycline], the solubility (physchem; water, aqueous solubility) was about 1000 µg/mL (≈ 2170 µM).
For `CCCCNc1ccc(C(=O)OCCN(C)C)cc1` [hydroiodic acid (HI) salt of tetracaine, tetracaine-H-I], the “extension of duration of action” value (human skin) is given as 5 -fold and the “duration of local anesthesia” value (surgical wounds) is given as 45 h.
For `O=C1CN(/N=C/c2ccc(-c3ccc([N+](=O)[O-])cc3)o2)C(O)=N1` [Dantrolene], the “dissolution in organic solvents” value (Solubility; 7.9 mg in mineral oil, n-dibutyl ether, methoxyflurane) was “did not dissolve”.
In the case of `CC[C@H]1OC(=O)[C@H](C)[C@@H](O[C@H]2C[C@@](C)(OC)[C@@H](O)[C@H](C)O2)[C@H](C)[C@@H](O[C@@H]2O[C@H](C)C[C@H](N(C)C)[C@H]2O)[C@](C)(O)C[C@@H](C)C(=O)[C@H](C)[C@@H](O)[C@]1(C)O` [erythromycin], the solubility (physchem; water) is reported as 2000 µg/mL (≈ 2730 µM).
In the case of `COc1ccc2c(c1)c(CC(=O)O)c(C)n2C(=O)c1ccc(Cl)cc1` [Indomethacin], the solubility (Solubility; pH 9.6) is reported as 30000 µg/mL (≈ 83800 µM), the solubility (Solubility; water, pH 7, water) is reported as 376 µg/mL (≈ 1050 µM) and the oil/water partition coefficient ([1]; olive oil/water) is reported as 55/1. For the same molecule, the oil/water partition coefficient ([1]; pentanol/water) was 85/1.
For `CCCC(C)C1(CC)C(=O)NC(=S)NC1=O` (stereo not shown) [thiopental], the listed adverse reactions [2] is listed as “venous thrombosis or phlebitis extending from the site of injection”.
Work on `CN(C)[C@@H]1C(=O)C(C(N)=O)=C(O)[C@@]2(O)C(=O)C3=C(O)c4c(O)cccc4[C@@](C)(O)[C@H]3[C@H](O)[C@@H]12` [oxytetracycline] yielded an aqueous solubility [3] of 1100 µg/mL (≈ 2390 µM).
Molecule `CCC[S+]([O-])c1ccc2[nH]c(NC(=O)OC)nc2c1` (stereo not shown) [albendazole sulfoxide] has a solubility (physchem; ethanol, organic solvent or mixture, solubility, in ethanol) of 179000 µg/mL (≈ 636000 µM), a solubility (physchem; propylene glycol, organic solvent or mixture, solubility, in propylene glycol) of 17700 µg/mL (≈ 62900 µM) and a solubility (physchem; water, aqueous solubility) of 420 µg/mL (≈ 1490 µM). For the same molecule, the “rate of absorption into the blood” value (injected muscle) was “Faster rates of absorption into the blood”.
Molecule `CCCSc1ccc2nc(NC(=O)OC)[nH]c2c1` [albendazole] has a solubility (physchem; water, aqueous solubility) of under 100 µg/mL.
